From patent US8697869B2, “3-(heteroaryl-amino)-1,2,3,4-tetrahydro-9H-carbazole derivatives and their use as prostaglandin D2 receptor modulators” (Actelion Pharmaceuticals Ltd., priority 2010, dated 2014)
pIC50: −log10 of the molar value.

Columns and labels:
[1] = molecular target: T1, hCRTH2 receptor (Homo sapiens (Human), UniProt Q9Y5Y4); assay: Radioligand displacement assay in presence of human serum albumin (HSA); details: 3H-PGD2 2.5 nM, Binding-Buffer with 0.5% HSA instead of 0.1% BSA
Description: (§1) First, recombinant HEK293-hCRTH2 cells were detached from culture plates into 5 ml buffer A/plate (Buffer A: 5 mM Tris, 1 mM MgCl2-6H2O pH=7.4) using a rubber policeman. Cells were then transferred into centrifugation tubes and centrifuged for 5 min at 400 g. The cell pellet was resuspended in the same buffer and tubes were frozen at −80° C. Cells were thawed and membrane fragments were generated by homogenization using a polytron homogenizer (30 seconds). The membrane fragments were then centrifuged at 3000 g for 20 minutes and resuspended in buffer C (Buffer C: 75 mM Tris, 25 mM MgCl2, 250 mM Saccharose pH 7.4). Aliquots of membrane fragements were stored at −20° C.
(§2) Binding assay was performed in a final assay volume of 250 μl. First, 25 μl of test compound, previously diluted in Binding-Buffer (Binding-Buffer: 50 mM Tris-Base, 100 mM NaCl, 1 mM EDTA, 0.1% BSA (protease free), 0.01% NaN3, 10 mM MnCl2 pH 7.0) was placed into each well. After addition of 75 μl Binding-Buffer, 50 μl of the radioligand ^3H-PGD2 (at 2.5 nM (220.000 dpm/well) from ANAWA ART0662) was added to each well. Binding assay was started by addition of 100 μl CRTH2 membrane fragments, reaching a final concentration of 20 μg/well. For non-specific binding, PGD2 was added to the reaction mixture to […] final concentration. This assay mix was incubated for 90 minutes at room temperature and then filtered through a GF/C filter 96-well plate which was pre-soaked for 3 hours in 0.5% polyethyleneimine (PEI). The filter-wells were washed three times with ice cold Binding-Buffer. Then, 40 μl of Microscint-40 (Packard) was added to each well and the retained radioactivity quantified in a Topcount (Packard).
Radioligand Displacement Assay-Human Serum Albumin (HSA):
Radioligand displacement assay in presence of human serum albumin (HSA) was performed as described above, with following modifications. Binding-Buffer-HSA: Binding-buffer+0.5% Sigma Albumin from Human serum A1887 (instead of 0.1% BSA). A volume of 25 μl test compound, previously diluted in Binding-Buffer-HSA was placed into each well. After addition of 75 μl Binding-Buffer-HSA, 50 μl of ^3H-PGD2 (at 2.5 nM (220.000 dpm/well) from ANAWA ART0662) was added to each well. Remaining protocol was identical as described above.

[2] = test system: eosinophils; assay: Eosinophil shape change assay with human plasma; assay type: cell-based; details: human polymorphonuclear cells, 50% human plasma, activated with 100 nM PGD2
Description: After obtaining informed consent, blood samples were drawn by venipuncture according to the protocol approved by the ethics committee of Basel, Switzerland. Polymorphonuclear leukocytes (containing eosinophils, basophils and neutrophils) were isolated using the Polymorphprep™ method (Axis-Shield). In brief, anticoagulated whole blood was layered onto a Polymorphprep gradient (density 1.113 g/ml) and centrifuged at 500 g for 30 min. The polymorphonuclear cell fraction was harvested and depleted for erythrocytes by hypotonic saline lysis.
The polymorphonuclear cells were resuspended in assay buffer (1×PBS with Ca^2+/Mg^2+ supplemented with 0.1% BSA, 10 mM HEPES, and 10 mM Glucose, pH 7.4) at 5×10^6 cells/ml and stained with anti-CD49d-APC ((APC=Allophycocyanin) for 1 hour at RT. Test compounds, at various concentrations, were preincubated 10 min in human plasma (anticoagulated with a thrombin inhibitor). Then, human plasma was added to the polymorphonuclear cells to 50% of final assay volume with polymorphonuclear cells at 4×10^6 cells/rd. After incubation for 10 minutes at 37° C., the polymorphonuclear cells were activated for 5 min at 37° C. by addition of PGD2 at 100 nM final concentration. Activation was stopped by addition of 0.5 ml paraformaldehyde (1%).
Immediately after fixation with paraformaldehyde, the samples were analyzed by FACSCanto flow cytometer (BD Biosciences) and target cells were identified by their forward-scatter (FSC) and side-scatter (SSC) characteristics. Eosinophils were identified by the anti-CD49d-APC signal and their characteristic side-scatter (SSC) profile. Shape change responses, indicative of eosinophil activation, were quantified as the percent of cells with an increased forward-scatter.

[3] = molecular target: T1, hCRTH2 receptor; assay: hCRTH2 receptor membranes radioligand displacement assay (3H-PGD2); details: 3H-PGD2 2.5 nM, HEK293-hCRTH2 membranes, Binding-Buffer with 0.1% BSA
Description: Biological Assays: Preparation of hCRTH2 Receptor Membranes and Radioligand Displacement Assay:
as §1, §2

T1 sequence (Q9Y5Y4 whole entry, the tested form may be a part): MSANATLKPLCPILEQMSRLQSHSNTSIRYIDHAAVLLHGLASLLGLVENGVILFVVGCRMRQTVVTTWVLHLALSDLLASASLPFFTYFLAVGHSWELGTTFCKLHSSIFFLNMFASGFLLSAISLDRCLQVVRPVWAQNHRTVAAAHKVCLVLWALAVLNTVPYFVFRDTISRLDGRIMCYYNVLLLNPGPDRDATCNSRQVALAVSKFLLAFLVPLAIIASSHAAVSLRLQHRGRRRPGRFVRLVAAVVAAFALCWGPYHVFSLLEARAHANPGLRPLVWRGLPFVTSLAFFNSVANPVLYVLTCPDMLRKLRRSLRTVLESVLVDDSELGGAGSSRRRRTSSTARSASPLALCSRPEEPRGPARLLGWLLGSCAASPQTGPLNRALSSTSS

SMILES	pIC50 [1]	pIC50 [2]	pIC50 [3]	pIC50 ([2]; Eosinophil)
O=C(O)Cn1c2c(c3cc(F)ccc31)C[C@H](Nc1ncc(Cl)cn1)CC2 [Example 4, (3R)-2-(6-fluoro-3-((5-chloropyrimidin-2-yl)amino)-3,4-dihydro-1H-carbazol-9-(2H)-yl)acetic acid]	7.57	6.14	7.89	
CN(c1ncc(F)cn1)[C@H]1CCc2c(c3cc(F)ccc3n2CC(=O)O)C1 [Example 7, (3S)-2-(6-fluoro-3-((5-fluoropyrimidin-2-yl)(methyl)amino)-3,4-dihydro-1H-carbazol-9(2H)-yl)acetic acid]	8.15		8.60	8.10
CN(c1ncc(Cl)cn1)[C@H]1CCc2c(c3cc(F)ccc3n2CC(=O)O)C1 [Example 9, (3S)-2-(3-((5-chloropyrimidin-2-yl)(methyl)amino)-6-fluoro-3,4-dihydro-1H-carbazol-9(2H)-yl)acetic acid]	7.96		8.57	7.82
CN(c1ncc(C(F)(F)F)cn1)[C@H]1CCc2c(c3cc(F)ccc3n2CC(=O)O)C1 [Example 11, (3S)-2-(6-fluoro-3-(methyl(5-(trifluoromethyl)pyrimidin-2-yl)amino)-3,4-dihydro-1H-carbazol-9(2H)-yl)acetic acid]	7.82		8.70	7.31
CN(c1ncccn1)[C@H]1CCc2c(c3cc(F)ccc3n2CC(=O)O)C1 [Example 15, (3S)-2-(6-fluoro-3-(methyl(pyrimidin-2-yl)amino)-3,4-dihydro-1H-carbazol-9(2H)-yl)acetic acid]	7.46		8.00	7.18
CN(c1nc2ccccc2o1)[C@H]1CCc2c(c3cc(F)ccc3n2CC(=O)O)C1 [Example 19, (3S)-2-(3-(benzo[d]oxazol-2-yl(methyl)amino)-6-fluoro-3,4-dihydro-1H-carbazol-9(2H)-yl)acetic acid]	7.77		8.14	7.51
CCN(c1ncc(Cl)cn1)[C@H]1CCc2c(c3cc(F)ccc3n2CC(=O)O)C1 [Example 24, (3S)-2-(3-((5-chloropyrimidin-2-yl)(ethyl)amino)-6-fluoro-3,4-dihydro-1H-carbazol-9(2H)-yl)acetic acid]	7.72		8.77	7.43
CCCN(c1ncc(Cl)cn1)[C@H]1CCc2c(c3cc(F)ccc3n2CC(=O)O)C1 [Example 25, (3S)-2-(3-((5-chloropyrimidin-2-yl)(propyl)amino)-6-fluoro-3,4-dihydro-1H-carbazol-9(2H)-yl)acetic acid]	7.77		8.41	7.89
CN(c1ncc2ccccc2n1)[C@H]1CCc2c(c3cc(F)ccc3n2CC(=O)O)C1 [Example 28, (3S)-2-(6-fluoro-3-(methyl(quinazolin-2-yl)amino)-3,4-dihydro-1H-carbazol-9(2H)-yl)acetic acid]	7.66		7.92	7.60
CN(c1nc2cc(F)ccc2o1)[C@H]1CCc2c(c3cc(F)ccc3n2CC(=O)O)C1 [Example 29, (3S)-2-(6-fluoro-3-((5-fluorobenzo[d]oxazol-2-yl)(methyl)amino)-3,4-dihydro-1H-carbazol-9(2H)-yl)acetic acid]	8.15		8.39	8.40
Cc1cc(N(C)C2CCc3c(c4cc(F)ccc4n3CC(=O)O)C2)no1 (centres unmarked) [Example 52, 2-(6-fluoro-3-(methyl(5-methylisoxazol-3-yl)amino)-3,4-dihydro-1H-carbazol-9(2H)-yl)acetic acid]	7.24		8.13	
CN(c1ncc(Cl)cn1)C1CCc2c(c3cc(Cl)ccc3n2CC(=O)O)C1 (centres unmarked) [Example 54, 2-(6-chloro-3-((5-chloropyrimidin-2-yl)(methyl)amino)-3,4-dihydro-1H-carbazol-9(2H)-yl)acetic acid]	8.52		8.70	
CN(c1ncc(Cl)cn1)C1CCc2c(c3cc(OC(F)(F)F)ccc3n2CC(=O)O)C1 (centres unmarked) [Example 56, 2-(3-((5-chloropyrimidin-2-yl)(methyl)amino)-6-(trifluoromethoxy)-3,4-dihydro-1H-carbazol-9(2H)-yl)acetic acid]	6.52		8.06	
COc1ccc2c(c1)c1c(n2CC(=O)O)CCC(N(C)c2ncc(Cl)cn2)C1 (centres unmarked) [Example 57, 2-(3-((5-chloropyrimidin-2-yl)(methyl)amino)-6-methoxy-3,4-dihydro-1H-carbazol-9(2H)-yl)acetic acid]	7.25		8.34	
CN(c1ncc(Cl)cn1)C1CCc2c(c3cc(C(F)(F)F)ccc3n2CC(=O)O)C1 (centres unmarked) [Example 58, 2-(3-((5-chloropyrimidin-2-yl)(methyl)amino)-6-(trifluoromethyl)-3,4-dihydro-1H-carbazol-9(2H)-yl)acetic acid]	7.82		8.46	

Other lines, results leading:

pIC50 [1]	pIC50 [2]	pIC50 [3]	pIC50 ([2]; Eosinophil)	SMILES
7.70	7.68	7.80		O=C(O)Cn1c2c(c3cc(F)ccc31)C[C@@H](Nc1ncc(F)cn1)CC2 [Example 1, (3S)-2-(6-fluoro-3-((5-fluoropyrimidin-2-yl)amino)-3,4-dihydro-1H-carbazol-9-(2H)-yl)acetic acid]
7.64	7.39	8.34		O=C(O)Cn1c2c(c3cc(F)ccc31)C[C@@H](Nc1ncc(Cl)cn1)CC2 [Example 3, (3S)-2-(6-fluoro-3-((5-chloropyrimidin-2-yl)amino)-3,4-dihydro-1H-carbazol-9-(2H)-yl)acetic acid]
7.55		8.85	8.22	CN(c1nc2cc(Cl)ccc2o1)[C@H]1CCc2c(c3cc(F)ccc3n2CC(=O)O)C1 [Example 18, (3S)-2-(3-((5-chlorobenzo[d]oxazol-2-yl)(methyl)amino)-6-fluoro-3,4-dihydro-1H-carbazol-9(2H)-yl)acetic acid]
8.22		8.77	7.85	O=C(O)Cn1c2c(c3cc(F)ccc31)C[C@@H](N(CC1CC1)c1ncc(Cl)cn1)CC2 [Example 27, (3S)-2-(3-((5-chloropyrimidin-2-yl)(cyclopropylmethyl)amino)-6-fluoro-3,4-dihydro-1H-carbazol-9(2H)-yl)acetic acid]
7.70		8.17	7.48	CN(c1nc2ccc(Cl)cc2s1)[C@H]1CCc2c(c3cc(F)ccc3n2CC(=O)O)C1 [Example 32, (3S)-2-(3-((6-chlorobenzo[d]thiazol-2-yl)(methyl)amino)-6-fluoro-3,4-dihydro-1H-carbazol-9(2H)-yl)acetic acid]
7.80		8.29		CN(c1ncc(Cl)cn1)C1CCc2c(c3ccccc3n2CC(=O)O)C1 (centres unmarked) [Example 53, 2-(3-((5-chloropyrimidin-2-yl)(methyl)amino)-3,4-dihydro-1H-carbazol-9(2H)-yl)acetic acid]
7.40		8.26		Cc1ccc2c(c1)c1c(n2CC(=O)O)CCC(N(C)c2ncc(Cl)cn2)C1 (centres unmarked) [Example 55, 2-(3-((5-chloropyrimidin-2-yl)(methyl)amino)-6-methyl-3,4-dihydro-1H-carbazol-9(2H)-yl)acetic acid]
